Columns and labels:
[1] = xn = mol fraction of the nth substance listed; conditions: 101.3 kPa, Liquid; for mass density: Vibrating tube method; for speed of sound: Sing-around technique in a fixed-path interferometer
[2] = refractive index (Na D-line) (dimensionless); xn = mol fraction of the nth substance listed; conditions: 101.3 kPa, Liquid, Standard Abbe refractometry

c1ccc2c(c1)CCCC2 [1,2,3,4-tetrahydronaphthalene] + CCCCCCCCCCCC
Conditions | mass density, 333.15 K [kg/m3] | mass density, 343.15 K [kg/m3] | refractive index, 293.15 K | refractive index, 303.15 K | refractive index, 313.15 K | refractive index, 323.15 K | refractive index, 333.15 K | refractive index, 343.15 K | speed of sound, 343.15 K [m/s]
[1], x1 = 0.1021 | 733.68 | 726.25 | – | – | – | – | – | – | 1122.2
[1], x1 = 0.2015 | 748.42 | 740.94 | – | – | – | – | – | – | 1132.6
[1], x1 = 0.307 | 765.58 | 758.06 | – | – | – | – | – | – | 1146.8
[1], x1 = 0.3998 | 782.08 | 774.5 | – | – | – | – | – | – | 1159.3
[1], x1 = 0.4985 | 801.28 | 793.67 | – | – | – | – | – | – | 1175.4
[1], x1 = 0.5961 | 822.25 | 814.59 | – | – | – | – | – | – | 1192.4
[1], x1 = 0.7019 | 847.55 | 839.81 | – | – | – | – | – | – | 1214.6
[1], x1 = 0.8012 | 874.21 | 866.35 | – | – | – | – | – | – | 1238.2
[1], x1 = 0.8998 | 903.72 | 895.83 | – | – | – | – | – | – | 1266.4
[1], x1 = 1 | 937.77 | 929.8 | – | – | – | – | – | – | 1299.8
[2], x1 = 0.1021 | – | – | 1.42964 | 1.42538 | 1.42102 | 1.4166 | 1.41223 | 1.4078 | –
[2], x1 = 0.2015 | – | – | 1.43768 | 1.43335 | 1.42887 | 1.42456 | 1.42011 | 1.41563 | –
[2], x1 = 0.307 | – | – | 1.44691 | 1.44249 | 1.43817 | 1.43374 | 1.42925 | 1.42483 | –
[2], x1 = 0.3998 | – | – | 1.45578 | 1.45151 | 1.44709 | 1.44258 | 1.43819 | 1.43363 | –
[2], x1 = 0.4985 | – | – | 1.46621 | 1.46183 | 1.45748 | 1.45304 | 1.44856 | 1.44396 | –
[2], x1 = 0.5961 | – | – | 1.47773 | 1.47333 | 1.46884 | 1.46437 | 1.45998 | 1.45528 | –
[2], x1 = 0.7019 | – | – | 1.49155 | 1.48719 | 1.48267 | 1.47817 | 1.47364 | 1.46911 | –
[2], x1 = 0.8012 | – | – | 1.5062 | 1.50172 | 1.49723 | 1.49269 | 1.48822 | 1.48355 | –
[2], x1 = 0.8998 | – | – | 1.52267 | 1.51815 | 1.51359 | 1.50898 | 1.5043 | 1.49932 | –
[2], x1 = 1 | – | – | 1.54155 | 1.53687 | 1.53216 | 1.52752 | 1.52274 | 1.51795 | –

— the NIST ThermoML archive (doi:10.1016/j.jct.2012.05.023)
